Assay results: patent publication US20180160709A1, “bitter taste removing preparation and method” (priority 2016, published 2018)

Assay: In vitro membrane dialysis: bonding between bitter ingredients and proteins
Assay type: binding
Settings: among whey protein, milk powder, chicken ovalbumin, bovine serum albumin
Experimental: The possible hydrophobic bonding between bitter ingredients RO and protein molecules can be explored by using membrane dialysis:
Dialysis bag was purchased from Beijing Scientan science and technology company, molecular weight range 8-14 KD. The bag was immersed in 10 mL water in a beaker. The pore size on the membrane inhibited the protein molecules from penetrating.
Into the first group (control samples) bags added in the sophora flavescens, gentian, and scutellaria decoctions and Berberine in aqueous solution respectively, 0.2 mL each, and diluted with water to 2 mL total volume each. To simulate the Chinese medicine, in the 4 medicine decoctions used as sample and control sample, there was no additive and without any post processing.
In the second group of 4×5 bags, four different protein powders were added respectively: whey protein, milk powder, chicken ovalbumin, bovine serum albumin, 5 bags for each protein, 400 mg powder in each bag. As the last step of sample preparation, 2 mL of 1/10 diluted decoction solutions were added into the protein bags, 4 different protein bags for each medicine decoction to add in. Into the remaining set of 4 different protein bags from above, 2 ml water was added instead without any medicine decoction. […]
Scheduled sampling from the 10 mL water outside the bag, and followed by HPLC quantitative analysis. […]

Substance: bovine serum albumin: protein powder, 400 mg per dialysis bag
- encapsulation or hydrophobic bonding ability: strongest
